{"source": "paper PMC5383348", "about": "(Trends in cancer, 2017)", "origin": "cited, not measured here", "key": {"[1]": {"system": "recombinant human GLS", "conditions": "read-out: IC50 value against recombinant human GLS"}, "[2]": {"system": "cultured cancer cell lines for triple-negative breast cancer and multiple myeloma"}, "[3]": {"system": "xenograft models for triple-negative breast cancer and multiple myeloma"}}}
{"smiles": "O=C(Cc1cccc(OC(F)(F)F)c1)Nc1ccc(CCCCc2nnc(NC(=O)Cc3ccccn3)s2)nn1", "note": "[CB-839]", "values": [{"measurement": "IC50", "setting": "[1]", "value": "< 50", "unit": "nM"}, {"measurement": "efficacy against cultured cancer cell lines", "setting": "[2]", "value": "shown efficacy"}, {"measurement": "efficacy against xenograft models", "setting": "[3]", "value": "shown efficacy"}]}
